Key:
[1] = test system: TNF-α production in LPS-induced BV2 microglia cell lines; experiment: TNF-α assessment in LPS-induced BV2 microglia (ELISA); assay type: cell-based
Method: TNF-α signalling exacerbates both Aβ and tau pathologies in vivo, according to several lines of evidence based on genetic and pharmacological modifications.
(§1) LPS was the used positive control.
For TNF-α, cell lysate was used to assess TNF-α using the MyBioSource ELISA kit (Catalog No: MBS2502004). This assay employs the quantitative sandwich enzyme immunoassay technique. Briefly, 100 µl of the samples were added to each well. Incubate for 90 min at 37 °C, and immediately add 100 μl of Biotinylated Detection Ab working solution to each well. Incubate for 1 h at 37 °C, then add 350 µl of wash buffer to each well, 100 μl of HRP Conjugate working solution to each well was added, incubated for 30 min at 37 °C. Add 90 μl of Substrate Reagent to each well. Incubate for about 15 min at 37 °C. Then, 50 μl of Stop Solution was added to each well. Finally, the optical density of each well was detected at 450 nm.

[2] = test system: IL-1β production in LPS-induced BV2 microglia cell lines; experiment: IL-1β assessment in LPS-induced BV2 microglia (ELISA); assay type: cell-based
Method: IL-1β is a pro-inflammatory cytokines involved in the pathogenesis of AD[40]. So, activity of 5b and 6b derivatives were evaluated against LPS-induced BV2 microglia cell lines production of IL-1β. They induced a decrease in IL-1β level to about 5% and 48%, sequentially, as compared to a positive control (Figure 5).
as §1
For IL-1β, this assay employs the quantitative sandwich enzyme immunoassay technique. A monoclonal antibody specific for human IL-1β has been pre-coated onto a micro plate. Standards and samples are piped into the wells and any IL-1β present is bound by the immobilised antibody. After washing away any unbound substances, an enzyme-linked polyclonal antibody specific for human IL-1β is added to the wells. Following a wash to remove any unbound antibody-enzyme reagent, a substrate solution is added to the wells and colour develops in proportion to the amount of IL-1β bound in the initial step. The colour development is stopped and the intensity of the colour is measured, the method of assessment was performed as instructed in the IL-1 β R&D system ELISA kit (catalog No. DLB50).

[3] = test system: NO production in LPS-induced BV2 microglia cell lines; experiment: Nitric oxide (NO) assessment in LPS-induced BV2 microglia; assay type: cell-based; conditions: positive control 6.42 pg/mL
Method: In AD, increased production of vascular NO, a highly neurotoxic mediator in the CNS, may contribute to the vulnerability of neurons to injury and cell death.
as §1
NO plays an important role in neurotransmission, vascular regulation, immune response, and apoptosis. NO is rapidly oxidised to nitrite and nitrate which are used to quantitate NO. NO was estimated using the Abcam ELISA kit (catalog No. ab65328). Briefly, enzyme was added to cell lysate, followed with cofactor and incubated at room temperature for 60 min, after that Griess reagent was added and incubated at room temperature for 10 min., finally optical density was measured at 540 nm.
Microglia cell Line, BV-2, human neuroblastoma (SH-SY5Y), and normal hepatic (THLE2) cells were obtained from American Type Culture Collection, cells were cultured using DMEM (Invitrogen/Life Technologies, Carlsbad, CA) supplemented with 10% FBS (Hyclone), 10 µg/mL of insulin (Sigma, St. Louis, MO), and 1% penicillin-streptomycin. All of the other chemicals and reagents were from Sigma, or Invitrogen. Plate cells (cells density 1.2 − 1.8 × 10,000 cells/well) in a volume of 100 µL complete growth medium + 100 µL of the tested compounds per well in a 96-well plate for 24 h before the MTT assay.

[4] = test system: COX-2 production in LPS-induced BV2 microglia cell lines; experiment: COX-2 assessment in LPS-induced BV2 microglia (ELISA); assay type: cell-based
Method: Previously, it was reported that COX-2 is a key mediator in the inflammatory response and may play a role in neurodegeneration.
as §1
For COX-2, all reagents, samples, and standards were prepared as Kit instructions, then 100 μl of standard or sample were added to each well, incubated 2.5 h at room temperature. Then 100 μl of prepared biotin antibody was added to each well, incubated an hour at room temperature. After that 100 μl of prepared Streptavidin solution was added. Then it was incubated for 45 min at room temperature. An aliquot of 100 μl TMB One-Step Substrate Reagent was added to each well, incubated 30 min at room temperature, 50 μL stop solution added to each well. Finally, the optical density was read at 450 nm immediately.

[5] = biological target: BuChE (Homo sapiens, UniProt P06276); experiment: biochemical; conditions: modified Ellman; read-out: BuChE inhibitory activity IC50
BuChE, sequence (P06276 29-602): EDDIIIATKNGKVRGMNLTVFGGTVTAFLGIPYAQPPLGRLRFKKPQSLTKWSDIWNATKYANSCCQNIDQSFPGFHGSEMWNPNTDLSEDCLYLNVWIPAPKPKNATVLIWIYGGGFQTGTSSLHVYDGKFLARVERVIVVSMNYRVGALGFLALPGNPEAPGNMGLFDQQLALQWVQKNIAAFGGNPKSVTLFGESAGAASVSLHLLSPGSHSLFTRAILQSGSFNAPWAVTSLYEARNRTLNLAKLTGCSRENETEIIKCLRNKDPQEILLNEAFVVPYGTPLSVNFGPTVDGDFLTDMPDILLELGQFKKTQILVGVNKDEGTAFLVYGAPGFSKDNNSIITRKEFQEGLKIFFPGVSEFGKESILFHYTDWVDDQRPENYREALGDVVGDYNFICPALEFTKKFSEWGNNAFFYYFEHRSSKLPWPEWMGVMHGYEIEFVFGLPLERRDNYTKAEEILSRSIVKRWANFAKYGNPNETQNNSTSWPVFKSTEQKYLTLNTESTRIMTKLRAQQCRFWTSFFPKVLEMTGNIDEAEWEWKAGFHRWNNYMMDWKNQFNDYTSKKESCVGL
Method: (§2) The effects of twenty synthetic compounds were evaluated for AChE and BuChE inhibition using the modified method of Ellman et al.[33] […] AChE and BuChE are found in the brains of mammals. Genetically, structurally, and kinetically, the two kinds vary. In the human brain, BuChE is found in glial cells and neurons as well as in plaques and tangles in AD patients. […] BuChE may replace AChE by hydrolysing brain acetylcholine in some conditions, such as in mice nullizygote for AChE or in AD patients in advanced stages of the disease[34]^,[35].

[6] = biological target: AChE (Homo sapiens, UniProt P22303); experiment: biochemical; conditions: modified Ellman; read-out: AChE inhibitory activity IC50
AChE, sequence (P22303 32-614): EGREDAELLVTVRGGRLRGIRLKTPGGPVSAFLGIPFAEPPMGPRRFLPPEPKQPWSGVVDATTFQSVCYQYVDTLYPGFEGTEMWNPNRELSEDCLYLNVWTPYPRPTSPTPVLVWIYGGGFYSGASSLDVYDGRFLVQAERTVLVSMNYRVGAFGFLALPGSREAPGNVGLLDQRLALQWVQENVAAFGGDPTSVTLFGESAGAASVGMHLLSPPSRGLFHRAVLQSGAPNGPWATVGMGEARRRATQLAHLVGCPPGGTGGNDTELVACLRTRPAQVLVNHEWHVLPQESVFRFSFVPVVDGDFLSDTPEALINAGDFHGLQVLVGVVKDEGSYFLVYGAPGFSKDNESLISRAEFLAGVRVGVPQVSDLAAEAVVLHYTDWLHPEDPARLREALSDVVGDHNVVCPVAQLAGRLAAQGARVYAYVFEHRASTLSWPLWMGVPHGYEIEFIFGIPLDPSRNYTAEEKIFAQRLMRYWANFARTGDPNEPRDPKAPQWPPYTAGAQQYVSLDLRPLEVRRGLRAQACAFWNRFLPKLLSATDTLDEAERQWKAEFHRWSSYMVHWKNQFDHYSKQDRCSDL
Method: as §2

[7] = biological target: T1, Aβ1–42 (Homo sapiens, UniProt P05067); experiment: Inhibition of Aβ1-42 self-induced aggregation (BioVision ligand screening kit); assay type: biochemical; conditions: µM
T1 construct: purchased BioVision K570-100
T1 sequence (P05067 672-713 limits assumed): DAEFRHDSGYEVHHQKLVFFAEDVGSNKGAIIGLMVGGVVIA
Excerpt: Screening Aβ42 ligands that could prevent aggregation is critical for developing potential therapeutic treatments. In BioVision’s Beta-Amyloid 1–42 (Aβ42) Ligand Screening kit, a dye binds to the beta-sheets of an aggregated amyloid peptide resulting in an intense fluorescent product at wave length 450 nm using a BIOLINE ELISA reader. In the presence of an Aβ42 ligand, this reaction is impeded/abolished resulting in a decrease or total loss of fluorescence. This assay is useful in screening Aβ42 ligands for developing potential therapeutic agents against AD[42]. The assessment was performed according to BioVision’s Beta-Amyloid 1–42 (Aβ42) Ligand Screening Kit Catalog No. K570-100.

[8] = test system: IL-1β production; set-up: method as in PMID 21295616; conditions: read-out: suppression of IL-1β production IC50; cited from earlier work

For `CS(=O)(=O)n1cc(/C=C/C(=O)c2ccc(NC(=O)CN3CCC(Cc4ccccc4)CC3)cc2)c2ccccc21` [Compound 6b, (E)-2–(4-Benzylpiperidin-1-yl)-N-{4-[3–(1-(methylsulfonyl)-1H-indol-3-yl)acryloyl]phenyl}acetamide], the “decrease in TNF-α levels to, compared to positive control” value [1] was 67%, the “decrease in IL-1β level to about, as compared to a positive control” value [2] was about 48% and the NO level [3] was 4.46 pg/mL. The “decrease in COX-2 levels as compared to a positive control” value [4] was about 14%, the IC50 [5] was 80.4 nM and the IC50 [6] was 49.3 nM. For the same molecule, the IC50 [7] was 4.94 µM.

In the case of `Cc1cc(-c2ccccc2)nnc1C(=O)N1CCN(c2ncccn2)CC1` [GIBH-130], the IC50 [8] is listed as 3.4 nM.

In the case of `CS(=O)(=O)n1cc(/C=C/C(=O)c2ccc(NC(=O)Cc3ccc(Cl)cc3)cc2)c2ccccc21` [Compound 5b, (E)-2–(4-Chlorophenyl)-N-{4-[3–(1-(methylsulfonyl)-1H-indol-3-yl)acryloyl]phenyl}acetamide], the “decrease in TNF-α levels to, compared to positive control” value [1] is reported as 53%, the “decrease in IL-1β level to about, as compared to a positive control” value [2] is reported as “about 5%” and the NO level [3] is reported as 4.89 pg/mL. For the same molecule, the “decrease in COX-2 levels as compared to a positive control” value [4] was “about 20%”, the IC50 [5] was 36.9 nM and the IC50 [6] was 27.5 nM. The IC50 [7] was 2.5 µM.
